What follows are molecules tested on rabbit skeletal myofibrils (fast skeletal myofibrils) (assay: Activation of fast skeletal myofibrils (PUMA assay, AC1.4)). Details: calcium at pCa25, AC1.4 = concentration at which the compound increased the enzymatic activity.
Type: biochemical
Outline: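 In 12 mM PIPES pH 6.8 with 2 mM MgCl2 and 1 mM DTT, Triton-washed rabbit skeletal myofibrils were run at the pCa25 calcium level. Myosin-made ADP was recycled through a PK/LDH coupled system; NADH loss read at 340 nm.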

SMILES	AC1.4 [µM]
CC[C@H](C)[C@H]1C(=O)Nc2cccc(F)c2CN1/C(N)=N\C#N [Compound 336, (S,Z)-3-((S)-sec-butyl)-N′-cyano-6-fluoro-2-oxo-1,2,3,5-tetrahydro-4H-benzo[e][1,4]diazepine-4-carboximidamide]	0.12
CC[C@H](C)[C@H]1C(=O)Nc2cccc(F)c2CN1C(=O)N1CC(O)C1 [Compound 337, (S)-3-((S)-sec-butyl)-6-fluoro-4-(3-hydroxyazetidine-1-carbonyl)-1,3,4,5-tetrahydro-2H-benzo[e][1,4]diazepin-2-one]	0.72
CC[C@H](C)[C@H]1C(=O)Nc2cccc(F)c2CN1C(=O)NC [Compound 338, (S)-3-((S)-sec-butyl)-6-fluoro-N-methyl-2-oxo-1,2,3,5-tetrahydro-4H-benzo[e][1,4]diazepine-4-carboxamide]	0.69
CC[C@H](C)[C@H]1C(=O)Nc2cccc(F)c2CN1C(=O)CCO [Compound 339, (S)-3-((S)-sec-butyl)-6-fluoro-4-(3-hydroxypropanoyl)-1,3,4,5-tetrahydro-2H-benzo[e][1,4]diazepin-2-one]	2.79
CC[C@H](C)[C@H]1C(=O)Nc2cccc(F)c2CN1C(=O)N1CC[C@H](O)C1 [Compound 340, (S)-3-((S)-sec-butyl)-6-fluoro-4-((S)-3-hydroxypyrrolidine-1-carbonyl)-1,3,4,5-tetrahydro-2H-benzo[e][1,4]diazepin-2-one]	3.00
CC[C@H](C)[C@H]1C(=O)Nc2ccc(F)cc2CN1C(=O)CO [Compound 341, (S)-3-((S)-sec-butyl)-7-fluoro-4-(2-hydroxyacetyl)-1,3,4,5-tetrahydro-2H-benzo[e][1,4]diazepin-2-one]	2.37
CC[C@H](C)[C@H]1C(=O)Nc2ccc(F)cc2CN1C(=O)c1cn[nH]c1 [Compound 342, (S)-3-((S)-sec-butyl)-7-fluoro-4-(1H-pyrazole-4-carbonyl)-1,3,4,5-tetrahydro-2H-benzo[e][1,4]diazepin-2-one]	0.27
CC[C@H](C)[C@H]1C(=O)Nc2ccc(F)cc2CN1C(=O)c1ncn[nH]1 [Compound 343, (S)-3-((S)-sec-butyl)-7-fluoro-4-(1H-1,2,4-triazole-5-carbonyl)-1,3,4,5-tetrahydro-2H-benzo[e][1,4]diazepin-2-one]	0.25
CC[C@H](C)[C@H]1C(=O)Nc2ccc(F)cc2CN1C(=O)c1cccc(=O)[nH]1 [Compound 344, (S)-3-((S)-sec-butyl)-7-fluoro-4-(6-oxo-1,6-dihydropyridine-2-carbonyl)-1,3,4,5-tetrahydro-2H-benzo[e][1,4]diazepin-2-one]	1.91
CC[C@H](C)[C@H]1C(=O)Nc2ccc(F)cc2CN1S(N)(=O)=O [Compound 345, (S)-3-((S)-sec-butyl)-7-fluoro-2-oxo-1,2,3,5-tetrahydro-4H-benzo[e][1,4]diazepine-4-sulfonamide]	2.43
CC[C@H](C)[C@H]1C(=O)Nc2ccc(F)cc2CN1C(=O)N1CC(C)(O)C1 [Compound 346, (S)-3-((S)-sec-butyl)-7-fluoro-4-(3-hydroxy-3-methylazetidine-1-carbonyl)-1,3,4,5-tetrahydro-2H-benzo[e][1,4]diazepin-2-one]	1.57
CC[C@H](C)[C@H]1C(=O)Nc2ccc(F)cc2CN1C(=O)N1CC[C@H](O)C1 [Compound 347, (S)-3-((S)-sec-butyl)-7-fluoro-4-((S)-3-hydroxypyrrolidine-1-carbonyl)-1,3,4,5-tetrahydro-2H-benzo[e][1,4]diazepin-2-one]	3.59
CC[C@H](C)[C@H]1C(=O)Nc2ccc(F)cc2CN1C(=O)NC [Compound 348, (S)-3-((S)-sec-butyl)-7-fluoro-N-methyl-2-oxo-1,2,3,5-tetrahydro-4H-benzo[e][1,4]diazepine-4-carboxamide]	0.72

Source: patent US12441691B2 (Cytokinetics, Inc., priority 2020, dated 2025)
